Values joined by “and” are separate entries in the source; they are usually repeats but may differ in a detail not shown here. Equal values may be shown once. Read-outs that look alike come from different tables or passages of the source. Marks after values point to notes of the source that are not given here.
Experiments:
CB1Rs = CB1Rs (Mus musculus (Mouse), UniProt P47746); assay: [35S]GTPγS binding assay (G-protein activation) in mouse brain homogenates; type: biochemical
Method: Mouse brain homogenates for in vitro assays were prepared as previously described. Briefly, whole brains were harvested from B6SJL mice, snap-frozen in liquid nitrogen and stored at −80° C. On the day membrane homogenates were to be prepared, brains were thawed on ice, then pooled in a 40 mL Dounce glass homogenizer and suspended in 5 volumes of ice cold homogenization buffer (50 mM HEPES, pH 7.4, 3 mM MgCl2, and 1 mM EGTA). Brains were then subjected to 10 complete strokes with an A pestle, followed by centrifugation at 40,000×g for 10 minutes at +4° C. Resulting supernatants were discarded, and the pellet was resuspended, homogenized and centrifuged similarly twice more, with supernatants being discarded. For the final resuspension and homogenization with a B pestle, ice-cold 50 mM HEPES was used in place of homogenization buffer, and homogenates were aliquoted and stored at −80° C. Protein concentrations of homogenates were determined using the BCA™ Protein Assay (Thermo Scientific, Rockford, Ill.).
[^35S]GTPγS binding was performed as previously described. Briefly, 25 μg of mouse brain homogenates were incubated for 30 minutes at 30° C. with 0.1 nM [^35S]GTPγS, 10 μM GDP, and either cannabinoid+/−antagonist, 10 μM unlabeled GTPγS (non-specific binding) or vehicle (total binding), in triplicate, in a volume of 1 mL of buffer containing 20 mM HEPES, 10 mM MgCl2, 100 mM NaCl, 20 units/L adenosine deaminase, 0.05% BSA and the appropriate DMSO (0.1%) and/or ethanol (<0.2%) vehicle. Assay buffer containing 100 mM KCl, instead of 100 mM NaCl, was used to increase basal G-protein activity in experiments examining inverse agonism. Reactions were terminated by quick vacuum filtration through Whatman GF/B glass fiber filters, followed by five washes with ice-cold buffer (20 mM HEPES, 0.05% BSA). Filters were immediately placed into 7 mL scintillation vials to which 4 mL of ScintiVerse™ BD Cocktail scintillation fluid was added. Bound radioactivity was determined after overnight incubation at room temperature and shaking by liquid scintillation spectrophotometry with an efficiency of 93% (Tri Carb 2100 TR Liquid Scintillation Analyzer, Packard Instrument Company, Meriden, Conn.). Specific binding is expressed as picomoles of [^35S]GTPγS bound per mg of protein.
Curve fitting and statistical analyses for in vitro experiments were performed using GraphPad Prism™ version 5.0b (GraphPad Software Inc., San Diego, Calif.). The Cheng-Prusoff equation [45] was used to convert the experimental IC50 values obtained from competition receptor binding experiments to Ki values, a quantitative measure of receptor affinity. Non-linear regression for one-site competition was used to determine the IC50 for competition receptor binding. Curve fitting of concentration-effect curves via non-linear regression was also employed to determine the EC50 (a measure of potency) and Emax (a measure of efficacy) for [^35S]GTPγS concentration-effects experiments. […] Data are expressed as mean±SEM. The Student's t-test was used to determine statistical significance (P<0.05) between two groups, while a one-way ANOVA, followed by Tukey's Multiple Comparison post-hoc test, was used to determine statistical significance (P<0.05) between three or more groups.

NIH Swiss mice = assay: Core body temperature by biotelemetry (cannabinoid tetrad, hypothermia); type: in vivo, mouse
Method: Prior to surgery (see below), male NIH Swiss mice (Harlan Sprague Dawley Inc., Indianapolis, Ind.), weighing approximately 25-30 g, were housed 3 animals per Plexiglas® cage (15.24×25.40×12.70 cm) in a temperature-controlled room in an Association for Assessment and Accreditation of Laboratory Animal Care (AAALAC) accredited animal facility at the University of Arkansas for Medical Sciences. Room conditions were maintained at 22±2° C. and 45-50% humidity. Lights were set to a 12-h light/dark cycle. Animals were fed Lab Diet rodent chow (Laboratory Rodent Diet #5001, PMI Feeds, Inc., St. Louis, Mo.) and water ad libitum throughout testing Animals were acclimated to the laboratory environment for ˜7 days prior to experiments, and to the biotelemetry chambers for at least 2 hours prior to initiation of data acquisition. All test conditions used groups of 5 or 6 mice, and all mice were drug-naïve (with the exception of surgical anesthetics) prior to testing.
Cannabinoid effects on core temperature and locomotor activity were measured using surgically-implanted biotelemetry probes. Following appropriate anesthetization with ketamine (100 mg/kg, intraperitoneal [i.p.]) and xylazine (10 mg/kg, i.p.), the abdominal area of each mouse was shaved and sanitized with iodine swabs. A rostral-caudal cut approximately 1.5 cm in length was made with skin scissors, providing access to the intraperitoneal cavity. A cylindrical glass-encapsulated radiotelemetry probe (model ER-4000 E-Mitter, Mini Mitter Co., Inc., Bend, Oreg.) was then inserted, and the incision was closed using absorbable 5-0 chromic gut suture material. At least 7 days were imposed between surgery and experimental observation of cannabinoid effects to allow incisions to heal and mice to recover normal body weights. Following surgery, implanted mice were individually housed in Plexiglas® mouse cages (15.24×25.40×12.70 cm) for the duration of all temperature and locomotor activity experiments Implanted transmitters produced activity- and temperature-modulated signals that were transmitted to a receiver (model ER-4000 Receiver, Mini Mitter Co., Inc., Bend, Oreg.) underneath each mouse cage. Receivers were housed in light- and sound-attenuating cubicles (Med Associates model ENV-022MD, St. Albans, Vt.) equipped with exhaust fans, which further masked ambient laboratory noise. On experimental days, mice were weighed, marked, and returned to their individual cages during which at least 1 hr of baseline data were collected. […]. Mice were then placed into a new cage with fresh bedding to stimulate exploratory behavior. Temperature and locomotor activity data were collected at regular 5-min intervals and processed simultaneously by the Vital View data acquisition system (Mini Mitter Co., Inc., Bend, Oreg.) for at least 10 hrs.
For core body temperature experiments, the area under the curve (AUC) was calculated using a trapezoidal rule from 0-500 minutes, and statistical significance (P<0.05) was determined using a one-way ANOVA, followed by Tukey's HSD post-hoc test. For locomotor activity, total locomotor counts were summed from 0-800 minutes. Because locomotor, analgesia and catalepsy data were not normally distributed, Kruskal-Wallis one-way ANOVA on ranks were performed, and all pair-wise comparisons were then made using the Tukey's HSD tests. In vivo statistical calculations were performed using SigmaStat 3 (Systat Software, Inc., San Jose, Calif.).

| SMILES | [35S]GTPγS Binding, 1 μM (CB1Rs; 1 μM) [pmol/mg] | [35S]GTPγS Binding, +O-2050 (1 μM) (CB1Rs; 1 μM cannabinoid (100 nM for CP-55,940) co-incubated with CB1R antagonist O-2050 1 μM) [pmol/mg] | [35S]GTPγS Binding Emax (CB1Rs; concentration-effect, mouse brain homogenates) | EC50 (CB1Rs; concentration-effect, mouse brain homogenates, read-out: [35S]GTPγS Binding EC50) [nM] | [35S]GTPγS Binding, 10 μM (CB1Rs; receptor-saturating concentration 10 μM) | minimum core body temperature recorded (NIH Swiss mice; 10 mg/kg, i.p.) [°C] | time to maximal core body temperature reduction (NIH Swiss mice; 10 mg/kg, i.p.) [min] | effect on basal [35S]GTPγS binding levels when tested alone (CB1Rs; 0.1 nM to 10 μM) | Kb (CB1Rs; EC90 concentration of CP-55,940 (100 nM), from IC50 by modified Cheng-Prusoff, read-out: Kb, antagonism of CP-55,940-induced [35S]GTPγS binding) [nM] | antagonism of CB1R agonists and inverse agonists on [35S]GTPγS binding (CB1Rs; M4 10 μM co-incubated with CP-55,940, JWH-018, JWH-073, Rimonabant or AM251) | Kb (CB1Rs; M4 1, 3, 10 μM shifting JWH-018 curve, read-out: Kb, Schild analysis against JWH-018) | Schild plot slope (CB1Rs; against JWH-018) | JWH-018-induced hypothermia blunted by co-administration, core body temperature (NIH Swiss mice; M4 10 mg/kg i.p. co-administered with JWH-018 3 mg/kg i.p.) | change in body temperature, given alone (NIH Swiss mice; M4 10 mg/kg, i.p., alone) |
| --- | --- | --- | --- | --- | --- | --- | --- | --- | --- | --- | --- | --- | --- | --- |
| CCCCn1cc(C(=O)c2cccc3ccccc23)c2ccccc21 [JWH-073, (1-butyl-1H-indole-3-yl)-1-naphthalenyl-methanone] | 0.27 ± 0.04 | 0.07 ± 0.02 | 0.27 ± 0.01^a pmole/mg | 276 ± 65.3 | 0.28±0.03 pmole/mg and 0.28 ± 0.03^c pmole/mg | 29.74±1.44 | 54.17 ± 5.23 | – | – | – | – | – | – | – |
| CCCCn1cc(C(=O)c2cccc3ccccc23)c2cccc(O)c21 [Compound M4] | – | – | – | – | – | – | – | neither significantly increased (characteristic of agonists), nor decreased | 40.3 | significantly antagonized the action of agonists | ~40 nM and 48.1 nM and 48 nM | 0.97 | 33.09+/−0.70 °C | no significant change in body temperature |

Reference: patent publication US9416103B2, “Use of the aminoalkylindole JWH-073-M4 and related compounds as neutral CB1 receptor antagonists for the treatment of alcoholism, drug abuse, obesity, and obesity-related diseases” (The Board of Trustees of the University of Arkansas, priority 2012, dated 2016)
